Reference: patent publication US20220282657A1 (priority 2016, published 2022)

System: spleen cells
Set-up: species or system CD-1 mice
Details: mouse, in vivo

QS21
cell-mediated immune response (cytokine profile), in words: strong and balanced Th1 plus Th2 cytokine profile
